Results published in ChEMBL document CHEMBL4251548, “Efficient click chemistry towards fatty acids containing 1,2,3-triazole: Design and synthesis as potential antifungal drugs for Candida albicans” (2017).
Calls of active or inactive are those of the source. The calls are words filed in the database; no cut-off is given here.

Columns and labels:
[1] = system: Candida albicans; assay: Inhibition of germ tube formation in Candida albicans SC5314 assessed as reduction in yeast to hyphal conversion at 30 to 300 uM after 4 hrs by differential interference contrast microscopic analysis; format: functional, organism-based
[2] = system: Candida albicans; assay: Antifungal activity against Candida albicans SC5314 assessed as inhibition of yeast growth at <15 uM after 24 hrs by CLSI broth microdilution method; format: functional, organism-based
[3] = system: Candida albicans; assay: Inhibition of germ tube formation in Candida albicans SC5314 assessed as yeast to hyphal conversion at 30 to 300 uM after 2 hrs by differential interference contrast microscopic analysis relative to control; format: functional; parameters: scale not given: the % may be the effect or the level left
[4] = system: Candida albicans; assay: Inhibition of hypal growth in Candida albicans SC5314 assessed as length of germ tube at 200 uM after 3 hrs by differential interference contrast microscopic analysis (reference value: 149.9 +/- 22.3 micrometer); format: functional
[5] = system: Candida albicans; assay: Inhibition of hypal growth in Candida albicans SC5314 assessed as length of germ tube at 200 uM after 6 hrs by differential interference contrast microscopic analysis (reference value: 235.2 +/- 40.4 micrometer); format: functional
[6] = system: Candida albicans; assay: Antifungal activity against Candida albicans SC5314 assessed as inhibition of yeast growth at >120 uM after 24 hrs by CLSI broth microdilution method; format: functional, organism-based
[7] = system: Candida albicans; assay: Inhibition of hypal growth in Candida albicans SC5314 assessed as length of germ tube at 200 uM after 9 hrs by differential interference contrast microscopic analysis (reference value: 223.9 +/- 24.5 micrometer); format: functional
[8] = system: Candida albicans; assay: Inhibition of hypal growth in Candida albicans SC5314 assessed as length of germ tube at 200 uM measured immediately by differential interference contrast microscopic analysis (reference value: 70.3 +/- 12.3 micrometer); format: functional
[9] = system: Candida albicans; assay: Antifungal activity against Candida albicans SC5314 assessed as inhibition of yeast growth at 60 uM after 24 hrs by CLSI broth microdilution method relative to control; format: functional; details: SC5314, 24 h
[10] = system: Candida albicans; assay: Antifungal activity against Candida albicans SC5314 assessed as inhibition of yeast growth at >30 uM after 24 hrs by CLSI broth microdilution method; format: functional, organism-based
[11] = system: Candida albicans; assay: Inhibition of germ tube formation in Candida albicans SC5314 assessed as reduction in yeast to hyphal conversion at >200 uM after 4 hrs by differential interference contrast microscopic analysis relative to control; format: functional

SMILES	inhibition [1]	inhibition [2]	Activity [3] [%]	Activity [4] [um]	Activity [5] [um]	inhibition [6]	Activity [7] [um]	Activity [8] [um]	inhibition at 60 µM [9] [%]	inhibition [10]	inhibition (INH) [11] [%]
O=C(O)c1cn(CCCCCCO)nn1	Active	Active									
CCCCCCCCc1ccc(C(=O)O)s1			>95								
CCCCCCn1cc(C(=O)O)nn1	Active	Active		142.8	207.8	Active	223.5	66.5			
CCCCCCCCn1cc(C(=O)O)nn1		Active		64.4	54.6	Active	74.2	73.4	90	Active	95
CCCCCCCCCCn1cc(C(=O)O)nn1		Active		59.1	45		53.3	71.8	90	Active	95
CCCCCCCCC/C=C\C(=O)O	Active	Active		73.3	63.5		64.2	65.3		Active	
CCCCCCCCOc1ccc(C(=O)O)cc1			>95								
